{"source": "patent US11426441B2", "about": "“Composition comprising protein phosphatase 1 inhibitory peptide for treating vascular diseases” (BethphaGen Inc., priority 2016, dated 2022)", "key": {"[1]": {"system": "SERCA2a", "experiment": "Aorta ex vivo organ culture, SERCA2a western blotting", "format": "cell-based", "conditions": "ex vivo culture of rat thoracic aorta, injury by scratching", "experimental": "A rat thoracic aorta was harvested and incubated in RPMI-1640 medium containing 20 mM HEPES, 2 mM L-glutamine, 100 IU/mL penicillin, and 100 μg/mL streptomycin. The adventitia was removed, and the aorta was cut longitudinally and fixed onto a resin. To investigate the degradation of SERCA2a, tissue fragments were cultured for 7-10 days in RPMI-1640 medium containing 20% (v/v) FCS. The medium was replaced every 48 hours.\n(§1) Vascular smooth muscle cells (VSMCs) were homogenized in a minimal volume of 50 mM Tris-HCl, pH 7.4, supplemented with a broad-spectrum protease inhibitor cocktail (Calbiochem). The proteins were separated by SDS-PAGE and then transferred to polyvinylidene fluoride membranes (Schleicher & Schuell). After blocking with 5% (w/v) non-fat milk for 1 hour and washing with TBST, the membranes were incubated with antibodies against SERCA2a, SERCA2b (21st century biochemical), PCNA (abcam), GAPDH (Sigma-Aldrich), phospho-eNOS, eNOS, phospho-eIF2α, eIF2α (cell signaling), Vimentin, α-SMA, BMPR2 (Santa cruz), phospho-Akt, Akt (cell signaling), phospho-phospholamban (Merck), and Phospholamban (cell signaling). The membranes were then incubated with horseradish peroxidase-conjugated secondary antibodies (Jackson ImmunoResearch, West Grove, Pa., USA) and developed using a chemiluminescent substrate (Dogen). The blots were scanned and quantified using LAS software."}, "[2]": {"system": "cytosolic Ca^2+ level", "experiment": "Intracellular Ca2+ measurement in RASMCs", "format": "cell-based, rat", "conditions": "10% FBS, 3 μM peptide", "experimental": "FIGS. 4a, 4b, 4c and 4d. (4a-4c) HCSMCs were pretreated with 3 μM ψPLB-SE and 15 μM MDL28170 for 1 hour, and then treated with 50 μM A23187 for 2 hours. (4a) Immunostaining was performed with antibodies against SERCA2a and SERCA2b (green). Nuclei were stained with Hoechst (blue). Representative merged images are shown. Scale bar, 50 μm. (4b) Western blot analysis was performed with cell extracts. Data are expressed as the means±SD (n=3-4; *, P<0.05). (4c) Baseline Ca^2+ concentration was measured by lonOptix calcium imaging system. (4d) RASMC were treated with ψPLB-SE or control peptide under the same conditions as described for FIG. 1B. The baseline Ca^2+ concentration was measured by lonOptix calcium imaging system (*, P<0.05).\nThe intracellular Ca^2+ level was measured in VSMCs by loading cells with 0.5 μM Fura2-AM (Molecular Probes, Eugene Oreg., USA), a Ca^2+-sensitive indicator, for 15 minutes at 37. The fluorescence was recorded using the lonOptix calcium imaging system. VSMCs were stimulated by the exposure to light emitted by a 75 W halogen lamp through either a 340 nm or 380 nm filter. The fluorescent emissions were detected between 480 nm and 520 nm by a photomultiplier tube after an initial illumination at 340 nm for 0.5 second and then at 380 nm during recording. […]"}, "[3]": {"system": "monocrotaline (MCT)-induced pulmonary arterial hypertension rats", "experiment": "Monocrotaline-induced pulmonary arterial hypertension in rats", "format": "in vivo, rat", "experimental": "as §1\nEleven Sprague-Dawley rats (Damool science, Korea) weighing 250-300 g were administered with 60 mg/kg monocrotaline (MCT) (Sigma Aldrich) via intraperitoneal injection, and three animals of a control group were administered with 0.9% physiological saline. According to the dosing schedule, simultaneously with the administration of MCT, six animals for the […] were administered with ψPLB-SE peptide diluted in 300 μl via respiratory inhalation four times at intervals of one week. Five animals for the control group were administered with control peptide. The rats were sacrificed one week after the administration with last peptide, and then histological analysis and molecular biological experiments were conducted.\nIn order to indirectly measure the pulmonary artery pressure, right heart catheterization was conducted on the basis of a procedure reported in Nature Protocols in 2008. Rats were anesthetized, followed by tracheal intubation. The rats were placed on a homeothermic plate (AD Instruments, Spechbach, Germany) for the maintenance of body temperature during heart catheterization, and then kept breathing using an artificial respiratory device only for an animal (MiniVent type 845, Hugo Sachs Elektronik, March-Hugstetten, Germany). The chest of the rats was opened, and then high-fidelity 1.4 F micromanometer/Mikro-Tip Pressure catheter (Millar Instruments, Houston, Tex.) was allowed to infiltrate the tricuspid site, to measure the right ventricular end-systolic pressure, right ventricular end-diastolic pressure, left ventricular end-systolic pressure, and left ventricular end-diastolic pressure (RVESP, RVEDP, LVESP, LVEDP). Related values and data were collected and analyzed using the PowerLab data acquisition system (MPVS-Ultra Single Segment Foundation System, AD Instruments) and LabChart 7 for Windows software.\nPulmonary tissues were taken from animal models, fixed with 4% (w/v) paraformaldehyde for 5 days at room temperature, and then washed with PBS. After embedding the specimens in paraffin and sectioning the tissue blocks into a thickness of 7 μm, the sections were stained with haematoxylin and eosin (Sigma Aldrich) to investigate the vascular thickness and inflammation, and the sections were stained with Masson-trichrome (Sigma Aldrich) to investigate the extent of perivascular fibrosis, and then observed through an optical microscope.\nThe pulmonary tissues were obtained from rats and mice, and the cytokine levels in the tissues were quantitatively analyzed using human proinflammatory 10plex Meso Scale Diagnostics plates (MSD; Rockville, Md.)."}}, "note": "No end group written: not given here."}
{"sequence": "RAETIEMPQ (not fully specified) [ψPLB-SE, 9-mer PP1 decoy peptide mimicking phosphorylated PLB; conjugated via GGG linker to cell penetrating peptide dNP2 or TAT]", "values": [{"measurement": "injury-dependent reduction of SERCA2a in VSMCs", "setting": "[1]", "value": "completely inhibited"}, {"measurement": "cytosolic Ca^2+ level elevated under synthetic conditions", "setting": "[2]", "value": "decreased"}, {"measurement": "right ventricular end-systolic pressure", "setting": "[3]; MCT 60 mg/kg rats, peptide via respiratory inhalation once a week for 4 weeks, MCT 67.4±6.4, sham 33.7±1.7", "value": "33.5±5.8"}, {"measurement": "expression degree of BMPR2", "setting": "[3]; rat pulmonary tissue", "value": "restored"}, {"measurement": "fibrosis extent of vascular adventitia (Masson-trichrome staining)", "setting": "[3]; rat pulmonary tissue", "value": "reduced"}, {"measurement": "increase in vascular thickening (hematoxylin and eosin staining)", "setting": "[3]; rat pulmonary tissue", "value": "attenuated"}, {"measurement": "phosphorylation level of eIF2α", "setting": "[3]; rat pulmonary tissue", "value": "restored"}, {"measurement": "proinflammatory cytokines (GM-CSF, TNF-α, IL-17, IL-1β, IL-6, TGF-β) levels", "setting": "[3]; rat pulmonary tissue", "value": "restored to nearly to the normal levels"}, {"measurement": "eNOS phosphorylation level (eNOS activity)", "setting": "[3]; rat pulmonary tissue proteins", "value": "increased"}, {"measurement": "increases in the expression of vimentin and α-SMA", "setting": "[3]; rat pulmonary tissue, protein quantitative analysis", "value": "attenuated"}]}
